# Measured values from the SangsterLogP compilation.
# Experiment: method code RP-HPLC, from DOI: 10.1016/s0045-6535(96)00355-4
row,SMILES,logP
1,OC(c1ccc(Cl)cc1)(c1ccc(Cl)cc1)C(Cl)(Cl)Cl,4.93
2,CC(C)N(C(=O)CCl)c1ccccc1,2.36
3,CCNc1nc(N)nc(Cl)n1,1.07
4,CCC(CC)Nc1c([N+](=O)[O-])cc(C)c(C)c1[N+](=O)[O-],4.78
5,CCNc1nc(NC(C)C)nc(OC)n1,2.29
6,CCNc1nc(NC(C)(C)C)nc(OC)n1,2.95

# Experiment: not given
row,SMILES,logP
1,CCOP(=S)(OCC)Oc1ccc2c(C)c(Cl)c(=O)oc2c1,4.01
2,CCc1cccc(CC)c1N(COC)C(=O)CCl,2.95
3,CCCN(CCC)C(=O)SCC,2.77
4,Clc1ccc(C(c2ccccc2Cl)C(Cl)(Cl)Cl)cc1 (centres undefined),5.53
5,CCSC(=O)N(CC)C1CCCCC1,3.25
6,CCOP(=S)(OCC)SCSC(C)(C)C,3.98
7,CCCSC(=O)N(CCC)CCC,3.19
8,Clc1ccc(C(c2ccccc2Cl)C(Cl)Cl)cc1 (centres undefined),5.34
9,CCSC(=O)N(CC(C)C)CC(C)C,3.45
10,ClC(Cl)=C(c1ccc(Cl)cc1)c1ccccc1Cl,5.45
11,COP(=O)(OC)O/C(=C\Cl)c1cc(Cl)c(Cl)cc1Cl,3.87
12,CCSC(=O)N1CCCCCC1,2.49
13,CCCCN(CC)C(=O)SCCC,3.27
